Laboratory results reported in ChEMBL document CHEMBL3785005, “Novel triazole hybrids of myrrhanone C, a natural polypodane triterpene: Synthesis, cytotoxic activity and cell based studies” (Eur J Med Chem, 2016).

Tested on: HeLa
Assay: Cytotoxicity against human HeLa cells assessed as cell viability after 48 hrs by MTT assay
Type: functional, cell-based
Settings: not given

Row | SMILES | IC50
1 | CC(C)=CCC/C(C)=C/CC/C(C)=C/CC[C@@H]1[C@@]2(C)CC/C(=N\OCc3cn(-c4ccc(F)c(F)c4F)nn3)C(C)(C)[C@@H]2CC[C@@]1(C)O | 26.2 µM
2 | COc1cccc2c1C(=O)c1c(O)c3c(c(O)c1C2=O)C[C@@](O)(C(=O)CO)C[C@@H]3O[C@H]1C[C@H](N)[C@H](O)[C@H](C)O1 [DOXORUBICIN] | 2.57 µM
3 | CC(C)=CCC/C(C)=C/CC/C(C)=C/CC[C@@H]1[C@@]2(C)CC/C(=N\OCc3cn(-c4ccc(F)c(Cl)c4)nn3)C(C)(C)[C@@H]2CC[C@@]1(C)O | 20.1 µM
4 | COc1cc(OC)c(-n2cc(COc3ccc(/C=C4\C[C@]5(C)[C@@H](CC/C=C(\C)CC/C=C(\C)CCC=C(C)C)[C@](C)(O)CC[C@H]5C(C)(C)C4=O)cc3)nn2)c(OC)c1 | 17.5 µM
5 | COc1cccc(-n2cc(CO/N=C3\CC[C@]4(C)[C@@H](CC/C=C(\C)CC/C=C(\C)CCC=C(C)C)[C@](C)(O)CC[C@H]4C3(C)C)nn2)c1 | 22.9 µM
6 | CC(C)=CCC/C(C)=C/CC/C(C)=C/CC[C@@H]1[C@@]2(C)C/C(=C\c3ccc(OCc4cn(-c5ccc(F)cc5)nn4)cc3)C(=O)C(C)(C)[C@@H]2CC[C@@]1(C)O | 126 µM

Tested on: MCF7
Assay: Cytotoxicity against human MCF7 cells assessed as cell viability after 48 hrs by MTT assay
Type: functional, cell-based
Settings: MCF7, 48 h

Row | SMILES | IC50
7 | CC(C)=CCC/C(C)=C/CC/C(C)=C/CC[C@@H]1[C@@]2(C)CC/C(=N\OCc3cn(-c4ccc(F)c(F)c4F)nn3)C(C)(C)[C@@H]2CC[C@@]1(C)O | 32.2 µM
8 | CC(C)=CCC/C(C)=C/CC/C(C)=C/CC[C@@H]1[C@@]2(C)CC/C(=N\OCc3cn(-c4ccc(F)c(Cl)c4)nn3)C(C)(C)[C@@H]2CC[C@@]1(C)O | 31.4 µM
9 | COc1cc(OC)c(-n2cc(COc3ccc(/C=C4\C[C@]5(C)[C@@H](CC/C=C(\C)CC/C=C(\C)CCC=C(C)C)[C@](C)(O)CC[C@H]5C(C)(C)C4=O)cc3)nn2)c(OC)c1 | 13.5 µM
10 | COc1cccc(-n2cc(CO/N=C3\CC[C@]4(C)[C@@H](CC/C=C(\C)CC/C=C(\C)CCC=C(C)C)[C@](C)(O)CC[C@H]4C3(C)C)nn2)c1 | 25.4 µM
11 | CC(C)=CCC/C(C)=C/CC/C(C)=C/CC[C@@H]1[C@@]2(C)C/C(=C\c3ccc(OCc4cn(-c5ccc(F)cc5)nn4)cc3)C(=O)C(C)(C)[C@@H]2CC[C@@]1(C)O | 42 µM

Tested on: not listed separately
Assay: Cytotoxicity against human DU145 cells assessed as cell viability after 48 hrs by MTT assay
Type: functional, cell-based
Settings: DU-145, 48 h

Row | SMILES | IC50
12 | CC(C)=CCC/C(C)=C/CC/C(C)=C/CC[C@@H]1[C@@]2(C)CC/C(=N\OCc3cn(-c4ccc(F)c(F)c4F)nn3)C(C)(C)[C@@H]2CC[C@@]1(C)O | 30.4 µM
13 | COc1cccc2c1C(=O)c1c(O)c3c(c(O)c1C2=O)C[C@@](O)(C(=O)CO)C[C@@H]3O[C@H]1C[C@H](N)[C@H](O)[C@H](C)O1 [DOXORUBICIN] | 1.41 µM
14 | CC(C)=CCC/C(C)=C/CC/C(C)=C/CC[C@@H]1[C@@]2(C)CC/C(=N\OCc3cn(-c4ccc(F)c(Cl)c4)nn3)C(C)(C)[C@@H]2CC[C@@]1(C)O | 26.9 µM
15 | COc1cc(OC)c(-n2cc(COc3ccc(/C=C4\C[C@]5(C)[C@@H](CC/C=C(\C)CC/C=C(\C)CCC=C(C)C)[C@](C)(O)CC[C@H]5C(C)(C)C4=O)cc3)nn2)c(OC)c1 | 12 µM
16 | COc1cccc(-n2cc(CO/N=C3\CC[C@]4(C)[C@@H](CC/C=C(\C)CC/C=C(\C)CCC=C(C)C)[C@](C)(O)CC[C@H]4C3(C)C)nn2)c1 | 30.5 µM
17 | CC(C)=CCC/C(C)=C/CC/C(C)=C/CC[C@@H]1[C@@]2(C)C/C(=C\c3ccc(OCc4cn(-c5ccc(F)cc5)nn4)cc3)C(=O)C(C)(C)[C@@H]2CC[C@@]1(C)O | 33.6 µM

Tested on: HepG2
Assay: Cytotoxicity against human HepG2 cells assessed as cell viability after 48 hrs by MTT assay
Type: functional, cell-based
Settings: HepG2, 48 h

Row | SMILES | IC50
18 | CC(C)=CCC/C(C)=C/CC/C(C)=C/CC[C@@H]1[C@@]2(C)CC/C(=N\OCc3cn(-c4ccc(F)c(F)c4F)nn3)C(C)(C)[C@@H]2CC[C@@]1(C)O | 37.7 µM
19 | COc1cccc2c1C(=O)c1c(O)c3c(c(O)c1C2=O)C[C@@](O)(C(=O)CO)C[C@@H]3O[C@H]1C[C@H](N)[C@H](O)[C@H](C)O1 [DOXORUBICIN] | 3.01 µM
20 | CC(C)=CCC/C(C)=C/CC/C(C)=C/CC[C@@H]1[C@@]2(C)CC/C(=N\OCc3cn(-c4ccc(F)c(Cl)c4)nn3)C(C)(C)[C@@H]2CC[C@@]1(C)O | 58.9 µM
21 | COc1cc(OC)c(-n2cc(COc3ccc(/C=C4\C[C@]5(C)[C@@H](CC/C=C(\C)CC/C=C(\C)CCC=C(C)C)[C@](C)(O)CC[C@H]5C(C)(C)C4=O)cc3)nn2)c(OC)c1 | 57.5 µM
22 | COc1cccc(-n2cc(CO/N=C3\CC[C@]4(C)[C@@H](CC/C=C(\C)CC/C=C(\C)CCC=C(C)C)[C@](C)(O)CC[C@H]4C3(C)C)nn2)c1 | 51.3 µM
23 | CC(C)=CCC/C(C)=C/CC/C(C)=C/CC[C@@H]1[C@@]2(C)C/C(=C\c3ccc(OCc4cn(-c5ccc(F)cc5)nn4)cc3)C(=O)C(C)(C)[C@@H]2CC[C@@]1(C)O | 35.9 µM

Tested on: A549
Assay: Cytotoxicity against human A549 cells assessed as cell viability after 48 hrs by MTT assay
Type: functional, cell-based
Settings: A549, 48 h

Row | SMILES | IC50
24 | CC(C)=CCC/C(C)=C/CC/C(C)=C/CC[C@@H]1[C@@]2(C)CC/C(=N\OCc3cn(-c4ccc(F)c(F)c4F)nn3)C(C)(C)[C@@H]2CC[C@@]1(C)O | 26.9 µM
25 | COc1cccc2c1C(=O)c1c(O)c3c(c(O)c1C2=O)C[C@@](O)(C(=O)CO)C[C@@H]3O[C@H]1C[C@H](N)[C@H](O)[C@H](C)O1 [DOXORUBICIN] | 2.81 µM
26 | CC(C)=CCC/C(C)=C/CC/C(C)=C/CC[C@@H]1[C@@]2(C)CC/C(=N\OCc3cn(-c4ccc(F)c(Cl)c4)nn3)C(C)(C)[C@@H]2CC[C@@]1(C)O | 21.4 µM
27 | COc1cc(OC)c(-n2cc(COc3ccc(/C=C4\C[C@]5(C)[C@@H](CC/C=C(\C)CC/C=C(\C)CCC=C(C)C)[C@](C)(O)CC[C@H]5C(C)(C)C4=O)cc3)nn2)c(OC)c1 | 16.1 µM
28 | COc1cccc(-n2cc(CO/N=C3\CC[C@]4(C)[C@@H](CC/C=C(\C)CC/C=C(\C)CCC=C(C)C)[C@](C)(O)CC[C@H]4C3(C)C)nn2)c1 | 21.7 µM
29 | CC(C)=CCC/C(C)=C/CC/C(C)=C/CC[C@@H]1[C@@]2(C)C/C(=C\c3ccc(OCc4cn(-c5ccc(F)cc5)nn4)cc3)C(=O)C(C)(C)[C@@H]2CC[C@@]1(C)O | 55.2 µM
